# System: parental HEK-293T cells
# Experiment: cAMP-Glo assay in parental HEK-293T cells lacking RXFP1
# Format: cell-based
# Conditions: parental HEK-293T cells (lack RXFP1); relaxin 10 ng/mL or compound 10 µg/mL; 30 or 60 min
substance,measurement,value
relaxin,cAMP response in parental cells,no cAMP response
